# Measured values taken from US20150196638A1, “SYSTEM AND METHOD FOR USING ULTRASOUND-STIMULATED MICROBUBBLE EXPOSURES TO INDUCE CERAMIDE ACCUMULATION IN ENDOTHELIAL AND TUMOR CELLS” (priority 2012, published 2015).
# What was measured:
# [1] = test system: Human PC3 prostate cancer xenografts; assay: ISEL / H&E cell death histology of PC3 xenograft tumors (Example 1); assay type: in vivo, mice
# Procedure: Human PC3 prostate cancer (ATCC) xenografts were grown in the hind upper leg of SCID-17 mice (Charles River) by injecting 1.0×10̂6 RPMI-1640 media cultured cells subcutaneously (Wisent Biocentre), with 10% characterized serum (HyClone), and 100 U/mL of penicillin/streptomycin (Invitrogen). Tumors were grown to 7-8 mm diameter size before treatment. For treatments, ketamine and xylazine anesthetized mice were used. Vialmix device-prepared DEFINITY® (Lantheus Medical Imaging; N. Billerica, Mass.) microbubbles (perfluoropropane gas/liposome shell) were administered at doses of 3.6×10̂8 microbubbles (L, low dose) and 1.08×10̂9 microbubbles (H, high dose) in […] volumes of prepared bubbles, respectively. The final circulating concentrations were selected to be higher (100- and 300-fold, respectively) than the diagnostic dose used to ensure efficient interactions of the bubbles and microvascular walls.
# Mice were immersed in a 37 degree Celsius water bath to permit ultrasound treatment and centered on the tumor. For ultrasound exposures, a focused central frequency 500-kHz transducer (IL0509HP; ValpeyFisher Inc.) with a 28.6-mm transducer element diameter was used. This was attached to a micropositioning system, and excited with sinusoidal wave generated by a waveform generator (AWG520; Tektronix), a pulse-receive power amplifier (RPR4000; Ritec Inc.), and a digital-acquisition system (Acquiris CC103, Agiulent Technologies NY). Tumors were exposed over 50 ms to a 16-cycle tone burst at 500-kHz and 3-kHz pulse repetition frequencies with a 10% duty cycle during the 50-ms window. Treatments were for 5 min, amounting to a 750-ms exposure over 5 min for all mouse treatments, with an average duty cycle of 0.25%. Specifically, at 500 kHz the pulse bandwidth of the 16-cycle tone burst was 0.032 ms. The pulse repetition period (3-KHz pulse repetition frequency) was 0.333,ms, which, over 50 ms, corresponded to 150 periods of 16-cycle tone burst or 4.8 ms (rounded to 5 ms). […] The ultrasound peak negative pressure was 570 kPa measured with a calibrated hydrophone. […]
# asmase +/+ astrocytes = assay: Clonogenic survival assay, asmase +/+ astrocytes; assay type: cell-based, mouse
# Procedure: All cells were grown at 37 degrees Celsius with 5% CO2. Primary astrocytes (obtained from asmase +/+ and asmase −/− mouse brains, Sunnybrook Health Sciences Centre, Toronto, ON) were cultured in DMEM with 10% fetal bovine serum (FBS) and 5% Penicillin. HUVEC cells (Sunnybrook Health Sciences Centre, Toronto, ON, Canada) were grown in EBM-2 (Lonza, Walkersville, Md. USA) supplemented with 10 ml FBS, 0.2 ml Hydrocortisone, 2 ml hFGF-B, 0.5 ml VEGF, 0.5 ml R3-IGF-1, 0.5 ml ascorbic acid, 0.5 ml hEGF, 0.5 ml GA-1000 and 0.5 ml Heparin using EGM-2 singlequots kits. Breast and PC3 cells were grown in 1640-RPMI medium (Sigma-Aldrich Canada Inc., Oakville, ON, Canada), leukemia (AML, Ontario Cancer Institute, Toronto, ON), and KHT sarcoma cells (Sunnybrook Health Science Centre) were grown in α-MEM (Sigma-Aldrich Canada Inc., Oakville, ON), all with 10% FBS and 5% penicillin. In order to harvest adherent cells, confluent flasks were PBS washed, after which 0.05% trypsin EDTA (Gibco, Carlsbad, Calif. USA) was added for 5 minutes to detach cells. After trypsinization, cells were centrifuged at 440 g for 10 minutes and brought to a final cell concentration of 2×10̂6 cells/ml of medium with 1.5 ml aliquots used for each treatment (i.e., 3×10̂6 cells/sample). In all experiments cells were carefully handled to avoid clumping after typrinsization and this was verified by microscopy in advance of ultrasound treatments.
# For ultrasound treatments, a pulse was generated by a 2.86 cm-diameter single element transducer (IL0509HP, 500 kHz center frequency, Valpey-Fisher Inc., Hopkinton, Mass., USA) connected to a micro-positioning system. The set-up also included a cylindrical chamber (10 mm diameter) for cell exposure. The chamber had mylar windows on both sides and a magnetic stirrer to mix cells and bubbles during ultrasound exposure in order to avoid standing wave effects.
# In order to treat the cells, 50 μL of 45 seconds agitated vial-mix DEFINITY® microbubbles (Perflutren lipid microspheres, Lantheus Medical Imaging, Billerica, Mass. USA) and 1.5 ml of the 2×10̂6 cells/ml solution were added to the chamber (for a 3.3% v/v bubbles concentration). Insonification took place using a peak negative pressure of 570 kPa using a pulse sequence with a 9.6% duty cycle composed of a 16 cycle tone burst and a pulse repetition frequency of 3 kHz, for a total insonification time of 2,880 milliseconds over 30 seconds. The −6 dB beamwidth for this transducer was […] and the −3 dB beamwidth was 18 mm. Transducer characteristics were measured using a calibrated hydrophone in the absence and presence of the treatment set-up.
# Sphingosine-1-Phosphate (S1P) (Biomol International L.P., Plymouth Meeting, Pa. USA) was used to counteract the mechanisms leading to ceramide-mediated apoptotic cell death. In order to treat cells, 1 μM S1P was added to asmase +/+ and asmase −/− culture media one hour before damage treatments with radiation or ultrasound, and was present during trypsinization, and for clonogenic survival assays in media. The rationale for this was that any activation of ceramide-dependent cell death by treatment may take many hours to manifest and should be inhibited long term. Treatment of cells with C2-Ceramide (Sigma-Aldrich) was carried out similarly.
# Radiation treatments were carried out by exposing samples to X-ray ionizing radiation (Faxitron Cabinet X-ray, Faxitron X-Ray LLC, IL) at a dose rate of 200 cGy/minute. […]
# HUVEC cells = assay: Clonogenic survival assay, HUVEC; assay type: cell-based; settings: 1 μM
# Procedure: All cells were grown at 37 degrees Celsius with 5% CO2. Primary astrocytes (obtained from asmase +/+ and asmase −/− mouse brains, Sunnybrook Health Sciences Centre, Toronto, ON) were cultured in DMEM with 10% fetal bovine serum (FBS) and 5% Penicillin. HUVEC cells (Sunnybrook Health Sciences Centre, Toronto, ON, Canada) were grown in EBM-2 (Lonza, Walkersville, Md. USA) supplemented with 10 ml FBS, 0.2 ml Hydrocortisone, 2 ml hFGF-B, 0.5 ml VEGF, 0.5 ml R3-IGF-1, 0.5 ml ascorbic acid, 0.5 ml hEGF, 0.5 ml GA-1000 and 0.5 ml Heparin using EGM-2 singlequots kits. Breast and PC3 cells were grown in 1640-RPMI medium (Sigma-Aldrich Canada Inc., Oakville, ON, Canada), leukemia (AML, Ontario Cancer Institute, Toronto, ON), and KHT sarcoma cells (Sunnybrook Health Science Centre) were grown in α-MEM (Sigma-Aldrich Canada Inc., Oakville, ON), all with 10% FBS and 5% penicillin. […]
# In order to treat the cells, 50 μL of 45 seconds agitated vial-mix DEFINITY® microbubbles (Perflutren lipid microspheres, Lantheus Medical Imaging, Billerica, Mass. USA) and 1.5 ml of the 2×10̂6 cells/ml solution were added to the chamber (for a 3.3% v/v bubbles concentration). […] Transducer characteristics were measured using a calibrated hydrophone in the absence and presence of the treatment set-up. […]
# [2] = test system: ceramide in PC3 prostate tumors; assay: In vivo ceramide immunohistochemistry staining; set-up: species or system mice; settings: 4 μg IV; 2 or 8 Gy with high microbubble concentration
# From the text: (A) Quantification of ceramide immunohistochemistry staining of sections of PC3 prostate tumors treated with radiation and/or ultrasound-activated microbubbles. Labels indicate non (Nil), low (Low) and high concentration microbubble exposure (High) and radiation doses (0, 2 or 8 Gy). (B) Quantification of ceramide immunohistochemistry staining for experiments with S1P.
# In order to test if ultrasound-stimulated microbubbles in combination with ultrasound could stimulate ceramide formation, experiments were carried out using an additional cohort of 75 animals, with five mice per group. Mice were treated as above with no microbubbles, low, and high bubble concentrations in the presence of ultrasound and combined with 0, 2, and 8 Gy radiation doses given in single fractions as above for nine cohorts of n=5 animals. In addition, 0, 2, and 8 Gy conditions with and without high-concentration microbubble exposure in the presence of ultrasound were carried out in the presence of S1P using modified protocols. This used six cohorts of n=5 mice.
# For S1P treatments, 4 μg of S1P in 0.2 mL of PET (5% polyethylene glycol, 2.5% ethanol, and 0.8% Tween-80) was injected intravenously in mice 30 min prior to and 5 min after irradiation or after microbubble exposure with ultrasound and irradiation.
compound,measurement,setting,value
"bFGF: basic fibroblast growth factor (Sigma), a known endothelial cell protector",effect of pre-treatment on microbubble-induced cell death,[1]; 0.45 μg IV 1 hour before microbubbles (1% vol/vol) with ultrasound,diminished the cell death
same,"cell death, bFGF-treated animals with ultrasound-stimulated microbubbles versus untreated control","[1]; 0.45 μg IV, P=0.24",no difference
CCCCCCCCCCCCC/C=C/[C@@H](O)[C@H](CO)NC(C)=O [C2-Ceramide],cell kill,asmase +/+ astrocytes; 1 μM,no significant cell kill
same,survival,asmase +/+ astrocytes; ceramide alone as a control,50±5%
same,survival on ceramide exposure,HUVEC cells,did not survive
"CCCCCCCCCCCCC/C=C/[C@@H](O)[C@@H](N)COP(=O)(O)O [S1P, Sphingosine-1-Phosphate]",effect on apoptotic cell death induced by microbubbles and radiation,"[1]; 4 μg IV 30 min before and 5 min after treatments, 0, 2, 8 Gy with or without high microbubbles",diminishment of detected apoptotic cell death
same,protective effect on survival,"asmase +/+ astrocytes; 1 μM, cells treated with either radiation or ultrasound with microbubbles",no protective effect
same,protective effect on survival,"asmase +/+ astrocytes; 1 μM, ultrasound and microbubbles prior to radiation",protection was detected
same,radioresistance of wild-type astrocytes,"asmase +/+ astrocytes; S1P-treated, radiation",conferred some radioresistance
same,ceramide increases in the presence of S1P,[2],increases were not apparent
same,protection from apoptosis,"HUVEC cells; radiation or ultrasound and microbubbles, p<0.01",significantly protected
